Results on 40 compounds are retold here after US7166598B2, “Piperazine derivatives” (Astellas Pharma Inc., priority 1998, dated 2007).

Turning to `COC[C@@H]1CN(CCN2CCN(C(=O)c3cc(C(F)(F)F)cc(C(F)(F)F)c3)[C@H](Cc3ccc(C)c(N4CCCC4)c3)C2)CCO1.Cl.Cl.Cl`, the melting point was 160 to 165 °C.
With `Cc1ccc(C[C@@H]2CN(Cc3csc(N)n3)CCN2C(=O)c2cc(C(F)(F)F)cc(C(F)(F)F)c2)cc1O.Cl.Cl`, the melting point is 205 to 215 °C.
Regarding `CSc1cc(C(=O)N2CCN(CCN3C[C@@H](C)O[C@@H](C)C3)C[C@H]2Cc2ccc(Cl)c(O)c2)cc(C(F)(F)F)c1.Cl.Cl`, the melting point is 162 to 178 °C.
Next, `COC[C@@H]1CN(CCN2CCN(C(=O)c3cc(C(F)(F)F)cc(C(F)(F)F)c3)C(Cc3ccc(C)c(O)c3)C2)C(C)(C)CO1.Cl.Cl` (stereo partly shown): 150 to 180 °C; `C[C@@H]1CN(CCN2CCN(C(=O)c3cc([N+](=O)[O-])cc(C(F)(F)F)c3)[C@H](Cc3ccc(Cl)cc3)C2)C[C@H](C)O1.Cl.Cl`: 133.3 to 136.2 °C; `Cl.Cl.Cl.O=C(c1cc(C(F)(F)F)cc(C(F)(F)F)c1)N1CCN(CCN2CCc3ncccc3C2)C[C@H]1Cc1ccc(Cl)c(O)c1`: 237 to 243 °C (dec.).
As for `Cl.Cl.O=C(c1cc(C(F)(F)F)cc(C(F)(F)F)c1)N1CCN(CCCc2cccnc2)C[C@H]1Cc1ccc(C(F)(F)F)cc1`, the melting point lay in the range of 64 to 74 °C.
Then `CSc1cc(C(=O)N2CCN(CCN3CCc4ncccc4C3)C[C@H]2Cc2ccc(Cl)c(O)c2)cc(C(F)(F)F)c1.Cl.Cl.Cl`, with 169 to 178 °C.
Regarding `COc1cc(C[C@@H]2CN(CCN3CCOC(C)(C)C3)CCN2C(=O)c2cc(C(F)(F)F)cc(C(F)(F)F)c2)ccc1F.Cl.Cl`, the melting point lay within 152 to 162 °C.
`Cc1cc(C(=O)N2CCN(CCN3CCc4ncccc4C3)C[C@H]2Cc2ccc(Cl)cc2)cc(C(F)(F)F)c1.Cl.Cl.Cl` came in with a melting point of 102.5 to 110.4 °C.
In turn, `COc1cc(C(=O)N2CCN(CCN3CCc4ncccc4C3)C[C@H]2Cc2ccc3ccccc3c2)cc(C(F)(F)F)c1.Cl.Cl.Cl` came in with a melting point of 173 to 183 °C.
As to `Cl.Cl.O=C(c1cc(C(F)(F)F)cc(C(F)(F)F)c1)N1CCN(Cc2cccnc2)C[C@H]1Cc1ccc(Cl)cc1`, the melting point is 220 to 228 °C (dec.).
Then `C[C@@H]1CN(CCN2CCN(C(=O)c3cc(C(F)(F)F)cc(C(F)(F)F)c3)[C@H](Cc3ccc4ccccc4c3)C2)C[C@H](C)O1.Cl.Cl`, with 168 to 195 °C; and `CNc1noc(CN2CCN(C(=O)c3cc(C(F)(F)F)cc(C(F)(F)F)c3)[C@H](Cc3ccc(C)c(O)c3)C2)n1.Cl.Cl`, with 145 to 160 °C.
In turn, `Cc1ccc(C[C@@H]2CN(Cc3nsc(N)n3)CCN2C(=O)c2cc(C(F)(F)F)cc(C(F)(F)F)c2)cc1O.Cl.Cl` yielded a melting point of 177 to 182 °C.
`CC1(C)COCCN1CC#CCN1CCN(C(=O)c2cc(C(F)(F)F)cc(C(F)(F)F)c2)[C@H](Cc2ccc(Cl)c(O)c2)C1.Cl.Cl` yielded a melting point of 181 to 186 °C.
Consider `COc1cc(C[C@@H]2CN(CCN3C[C@H](OC)[C@@H](OC)C3)CCN2C(=O)c2cc(C(F)(F)F)cc(C(F)(F)F)c2)ccc1F.Cl.Cl`, for which the melting point lay within 112 to 120 °C.
Next, `Cc1ccc(CC2CN(CCCc3cccnc3)CCN2C(=O)c2cc(C(F)(F)F)cc(C(F)(F)F)c2)cc1O.Cl.Cl` (stereo not shown) [Example 8, 1-[3,5-bis(trifluoromethyl)benzoyl]-2-(3-hydroxy-4-methylbenzyl)-4-[3-(3-pyridyl)propyl]piperazine dihydrochloride]: 60 to 70 °C; `COCC1(COC)CN(CCN2CCN(C(=O)c3cc(C(F)(F)F)cc(C(F)(F)F)c3)[C@H](Cc3ccc(C(F)(F)F)cc3)C2)CCO1.Cl.Cl`: 123 to 149 °C.
`COc1cc(C(=O)N2CCN(CCN3CCc4ncccc4C3)C[C@H]2Cc2ccc(C(F)(F)F)cc2)cc(C(F)(F)F)c1.Cl.Cl.Cl` returned a melting point of 185 to 191 °C.
Consider `COc1cc(C(=O)N2CCN(CC#CCN3CCOCC3(C)C)C[C@H]2Cc2ccc3ccccc3c2)cc(C(F)(F)F)c1.Cl.Cl`, for which the melting point fell in the range of 190 to 199 °C.
Next, `CC1(C)COCCN1CC#CCN1CCN(C(=O)c2cc(C(F)(F)F)cc(C(F)(F)F)c2)[C@H](Cc2ccc(C(F)(F)F)cc2)C1.Cl.Cl`: 110 to 130 °C.
`COC[C@@H]1CN(CCN2CCN(C(=O)c3cc(C(F)(F)F)cc(C(F)(F)F)c3)[C@H](Cc3ccc(Cl)c(O)c3)C2)CCO1.Cl.Cl` registered a melting point of 160 to 169 °C.
Then `COc1cc(C(=O)N2CCN(CCN3CCc4ncccc4C3)C[C@H]2Cc2c[nH]c3ccccc23)cc(C(F)(F)F)c1.Cl.Cl.Cl`, with 180 to 190 °C.
Next, `Cl.Cl.Cl.Cl.O=C(c1cc(-c2ccncc2)cc(C(F)(F)F)c1)N1CCN(CCN2CCc3ncccc3C2)C[C@H]1Cc1ccc(C(F)(F)F)cc1`: 205 to 218 °C.
Then `COc1cc(C(=O)N2CCN(CC#CCN3CCOCC3(C)C)C[C@H]2Cc2ccc(Cl)c(O)c2)cc(C(F)(F)F)c1.Cl.Cl`, with 187 to 195 °C; and `COc1cc(C(=O)N2CCN(CCN3CCC(F)(F)CC3)C[C@H]2Cc2ccc(Cl)cc2)cc(C(F)(F)F)c1.Cl.Cl`, with 220 to 250 °C; and `C[C@@H]1CN(CCN2CCN(C(=O)c3cc(C(F)(F)F)cc(S(=O)(=O)N(C)C)c3)[C@H](Cc3ccc(Cl)cc3)C2)C[C@H](C)O1.Cl.Cl`, with 209.6 to 213.7 °C.
On to `Cl.Cl.O=C(c1cc(C(F)(F)F)cc(C(F)(F)F)c1)N1CCN(CCN2CCC(F)(F)CC2)C[C@H]1Cc1ccc(F)cc1`, for which the melting point is 264 to 270.6 °C.
In the case of `COc1cc(C(=O)N2CCN(CCN3C[C@@H](C)O[C@@H](C)C3)C[C@H]2Cc2ccc(Cl)cc2)cc(C(F)(F)F)c1.Cl.Cl`, the melting point was 90 to 120 °C.
For `COc1cc(C(=O)N2CCN(Cc3cnn(C)c3)C[C@H]2Cc2c[nH]c3ccccc23)cc(C(F)(F)F)c1.Cl`, the melting point was in the range of 210 to 220 °C.
In turn, `COC[C@@H]1C[C@H](COC)CN(CCN2CCN(C(=O)c3cc(C(F)(F)F)cc(C(F)(F)F)c3)[C@H](Cc3ccc(F)c(OC)c3)C2)C1.Cl.Cl` had a melting point of 150 to 156 °C.
`COc1cc(C(=O)N2CCN(CC#CCN3CCOCC3(C)C)C[C@H]2Cc2ccc(C)c(O)c2)cc(C(F)(F)F)c1.Cl.Cl` had a melting point of 181 to 188 °C.
Compound `COc1cc(C(=O)N2CCN(Cc3cnn(C)c3)C[C@H]2Cc2ccc(F)cc2)cc(C(F)(F)F)c1.Cl` gave a melting point of 225.6 to 228.4 °C.
Turning to `CN(C)S(=O)(=O)c1cc(C(=O)N2CCN(CCN3CCc4ncccc4C3)C[C@H]2Cc2ccc(Cl)cc2)cc(C(F)(F)F)c1.Cl.Cl.Cl`, the melting point lay within 209 to 226 °C.
Next, `CNc1cc(C(=O)N2CCN(CCN3C[C@@H](C)O[C@@H](C)C3)C[C@H]2Cc2ccc(Cl)cc2)cc(C(F)(F)F)c1.Cl.Cl`: 245.6 to 248.7 °C; `Cc1ccc(C[C@@H]2CN(Cc3nc(N(C)C)no3)CCN2C(=O)c2cc(C(F)(F)F)cc(C(F)(F)F)c2)cc1O.Cl.Cl`: 140 to 150 °C.
`COC[C@@H]1CN(CCN2CCN(C(=O)c3cc(Cl)cc(C(F)(F)F)c3)[C@H](Cc3ccc(Cl)cc3)C2)CCO1.Cl.Cl` displayed a melting point of 148 to 153 °C.
Turning to `COc1cc(C(=O)N2CCN(Cc3cccnc3)C[C@H]2Cc2ccc(F)cc2)cc(C(F)(F)F)c1.Cl.Cl`, the melting point lay in the range of 81.4 to 84.3 °C.
Next, `COc1cc(C(=O)N2CCN(CCN3CCc4ncccc4C3)C[C@H]2Cc2ccc(F)cc2)cc(C(F)(F)F)c1.Cl.Cl.Cl`: 148.7 to 152.3 °C.

What is called melting point is the temperature of the solid-liquid transition.
